Assay [1] can be described thus: inhibitors of HIV Env-driven cell fusion, dose response, cherry-pick (AID 652057). Format: functional, cell-based.
The nature of assay [2]: off-target signal loss in HeLa-CEM21 co-culture – HeLa F-luc CTL cells, cherry-picked, counter-screen for HIV-1 Env fusion inhibitor project, dose response (AID 652040).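 Also: potency for signal decrease marking cytotoxic or nonspecific inhibition.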 Format: functional, cell-based.
A short description of assay [3]: ZM109 Env clade C HIV-1 fusion inhibitors, dose response, HeLa effector, CEM target cells, luciferase, cherry-pick (AID 652058). Format: functional, cell-based.
Assay [4] is described as follows: inhibitors of clade B AD8 Env fusion, dose response, cell-based, cherry-pick (AID 652062).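 Also: luciferase signal from cell-cell fusion driven by HIV-1 clade B AD8 Env; potency is for inhibitors of fusion seen as a drop in luminescence.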 Format: functional.
Assay [5] deals with T1, Short transient receptor potential channel 4 (Mus musculus, UniProt Q9QUQ5).
T1 sequence (Q9QUQ5 whole entry): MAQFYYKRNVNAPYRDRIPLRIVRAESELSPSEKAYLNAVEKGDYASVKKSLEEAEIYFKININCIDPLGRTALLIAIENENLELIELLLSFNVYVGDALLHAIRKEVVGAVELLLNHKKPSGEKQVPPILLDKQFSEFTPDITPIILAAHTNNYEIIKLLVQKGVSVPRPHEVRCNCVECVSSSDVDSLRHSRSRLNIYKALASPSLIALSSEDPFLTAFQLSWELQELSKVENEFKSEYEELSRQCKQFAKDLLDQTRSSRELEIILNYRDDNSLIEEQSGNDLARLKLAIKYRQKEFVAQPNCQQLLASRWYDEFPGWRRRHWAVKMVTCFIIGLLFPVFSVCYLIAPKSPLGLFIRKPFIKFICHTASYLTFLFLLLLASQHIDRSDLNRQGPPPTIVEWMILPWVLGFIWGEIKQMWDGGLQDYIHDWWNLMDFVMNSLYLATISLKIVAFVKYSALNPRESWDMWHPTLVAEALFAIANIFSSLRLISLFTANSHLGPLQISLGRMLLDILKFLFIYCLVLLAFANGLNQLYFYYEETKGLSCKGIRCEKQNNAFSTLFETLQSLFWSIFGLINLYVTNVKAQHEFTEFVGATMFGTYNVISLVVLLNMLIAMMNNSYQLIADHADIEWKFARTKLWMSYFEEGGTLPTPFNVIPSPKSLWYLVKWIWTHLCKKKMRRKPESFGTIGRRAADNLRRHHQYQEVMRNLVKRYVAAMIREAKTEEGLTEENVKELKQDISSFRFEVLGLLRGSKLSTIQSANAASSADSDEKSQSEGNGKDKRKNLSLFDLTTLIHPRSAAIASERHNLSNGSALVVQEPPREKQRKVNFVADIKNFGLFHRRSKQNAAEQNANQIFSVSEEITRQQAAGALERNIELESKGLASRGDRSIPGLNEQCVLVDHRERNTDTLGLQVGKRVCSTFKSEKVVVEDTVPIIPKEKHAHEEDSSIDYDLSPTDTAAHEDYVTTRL
The assay can be described thus: mouse TRPC4 channel activators, dose response, cell-based, HEK293 TRPC4/mu-opioid, Fluo-4 calcium (AID 434937). Format: functional.

In assay [6] the target is T1, Short transient receptor potential channel 4. The assay can be described thus: mouse TRPC4 channel inhibitors, dose response, cell-based, HEK293 TRPC4/mu-opioid, Fluo-4 calcium (AID 434942).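 Also: potency of inhibitors blocking the TRPC4 calcium response.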 Format: functional.
Assay [7] deals with T2, Sentrin-specific protease 7 (Homo sapiens, UniProt Q9BQF6).
T2 sequence (Q9BQF6 whole entry): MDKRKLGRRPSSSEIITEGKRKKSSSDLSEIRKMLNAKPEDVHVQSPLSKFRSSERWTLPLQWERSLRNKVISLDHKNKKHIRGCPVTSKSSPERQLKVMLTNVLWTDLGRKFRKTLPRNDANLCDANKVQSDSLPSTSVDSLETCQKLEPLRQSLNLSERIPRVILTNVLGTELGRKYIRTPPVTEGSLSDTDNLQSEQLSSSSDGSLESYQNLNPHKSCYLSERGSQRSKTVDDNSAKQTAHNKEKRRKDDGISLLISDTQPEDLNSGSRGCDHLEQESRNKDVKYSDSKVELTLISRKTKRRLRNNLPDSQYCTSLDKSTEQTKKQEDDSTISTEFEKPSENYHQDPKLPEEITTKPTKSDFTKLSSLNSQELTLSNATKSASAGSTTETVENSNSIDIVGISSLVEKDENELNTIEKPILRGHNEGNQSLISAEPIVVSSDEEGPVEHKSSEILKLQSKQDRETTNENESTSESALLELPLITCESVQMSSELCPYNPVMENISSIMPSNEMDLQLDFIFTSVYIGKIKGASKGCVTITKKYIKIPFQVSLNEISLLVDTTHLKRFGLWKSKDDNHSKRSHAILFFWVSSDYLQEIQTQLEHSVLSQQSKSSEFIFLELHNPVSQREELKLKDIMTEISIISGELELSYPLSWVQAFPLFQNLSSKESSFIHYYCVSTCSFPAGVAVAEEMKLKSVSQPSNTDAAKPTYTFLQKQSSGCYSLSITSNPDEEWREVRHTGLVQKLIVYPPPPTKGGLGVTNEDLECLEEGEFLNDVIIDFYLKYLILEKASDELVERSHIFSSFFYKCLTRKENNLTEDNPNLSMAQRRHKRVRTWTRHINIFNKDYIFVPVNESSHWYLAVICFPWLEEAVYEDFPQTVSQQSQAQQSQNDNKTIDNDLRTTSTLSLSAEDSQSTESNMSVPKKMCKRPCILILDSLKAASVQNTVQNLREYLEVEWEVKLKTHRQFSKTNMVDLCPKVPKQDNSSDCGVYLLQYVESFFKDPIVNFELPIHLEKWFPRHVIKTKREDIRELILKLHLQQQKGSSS
The assay is classed as functional.

Assay [8] concerns the target T3, Sentrin-specific protease 6 (Homo sapiens, UniProt Q9GZR1).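 Also: Luminescence-based dose-response confirmatory assay of SENP6 inhibition, following up an ultra-high-throughput screen.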
T3 sequence (Q9GZR1 whole entry): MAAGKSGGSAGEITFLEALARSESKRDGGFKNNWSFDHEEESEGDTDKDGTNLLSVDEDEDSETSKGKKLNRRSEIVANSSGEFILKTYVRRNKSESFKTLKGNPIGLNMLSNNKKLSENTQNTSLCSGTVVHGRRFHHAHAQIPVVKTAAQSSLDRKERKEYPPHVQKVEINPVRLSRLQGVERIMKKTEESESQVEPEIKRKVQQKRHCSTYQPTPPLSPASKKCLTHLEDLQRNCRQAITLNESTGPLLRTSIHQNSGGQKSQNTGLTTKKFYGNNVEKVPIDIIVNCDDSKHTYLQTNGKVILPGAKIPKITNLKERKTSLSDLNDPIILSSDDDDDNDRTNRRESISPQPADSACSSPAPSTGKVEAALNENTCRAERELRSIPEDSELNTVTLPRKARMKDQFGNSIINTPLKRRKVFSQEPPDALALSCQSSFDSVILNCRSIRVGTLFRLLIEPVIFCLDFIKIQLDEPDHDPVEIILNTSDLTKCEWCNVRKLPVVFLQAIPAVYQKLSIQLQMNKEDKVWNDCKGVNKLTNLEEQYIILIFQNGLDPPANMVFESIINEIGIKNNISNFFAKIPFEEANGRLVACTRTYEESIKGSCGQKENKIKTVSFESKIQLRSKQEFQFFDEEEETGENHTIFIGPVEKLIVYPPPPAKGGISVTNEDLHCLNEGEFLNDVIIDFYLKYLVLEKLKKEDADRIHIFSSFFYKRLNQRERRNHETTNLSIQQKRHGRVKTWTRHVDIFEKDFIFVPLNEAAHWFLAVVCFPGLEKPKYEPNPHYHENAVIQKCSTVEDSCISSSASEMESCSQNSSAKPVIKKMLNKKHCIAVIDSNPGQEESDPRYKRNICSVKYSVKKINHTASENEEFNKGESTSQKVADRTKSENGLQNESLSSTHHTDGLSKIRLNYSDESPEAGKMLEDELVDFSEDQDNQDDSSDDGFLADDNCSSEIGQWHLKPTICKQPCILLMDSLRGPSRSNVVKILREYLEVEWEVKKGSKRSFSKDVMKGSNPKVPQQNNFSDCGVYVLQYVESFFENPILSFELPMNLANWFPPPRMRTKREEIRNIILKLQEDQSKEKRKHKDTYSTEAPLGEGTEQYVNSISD
The assay is classed as functional.

The next assay deals with T4, Caspase-3 (Homo sapiens, UniProt P42574).
T4 sequence (P42574 whole entry): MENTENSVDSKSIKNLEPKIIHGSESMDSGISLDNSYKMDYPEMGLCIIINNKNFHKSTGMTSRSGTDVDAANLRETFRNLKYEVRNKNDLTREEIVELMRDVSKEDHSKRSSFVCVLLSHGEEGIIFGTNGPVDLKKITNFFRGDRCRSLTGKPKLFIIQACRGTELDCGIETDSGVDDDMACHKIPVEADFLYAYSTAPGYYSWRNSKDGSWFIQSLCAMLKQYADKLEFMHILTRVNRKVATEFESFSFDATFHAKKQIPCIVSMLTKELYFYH
The assay is classed as functional.

Assay [9] addresses T5, Sentrin-specific protease 8 (Homo sapiens, UniProt Q96LD8).
T5 sequence (Q96LD8 whole entry): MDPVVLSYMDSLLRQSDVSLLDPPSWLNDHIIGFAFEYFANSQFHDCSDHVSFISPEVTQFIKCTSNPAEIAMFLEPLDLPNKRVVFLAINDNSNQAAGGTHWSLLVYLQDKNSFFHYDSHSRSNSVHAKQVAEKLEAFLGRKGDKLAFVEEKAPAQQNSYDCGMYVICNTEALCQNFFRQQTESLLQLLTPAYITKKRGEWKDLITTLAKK
Format: functional.

Assay [10] has as its target T6, Apoptotic protease-activating factor 1 (Homo sapiens, UniProt O14727).
T6 sequence (O14727 whole entry): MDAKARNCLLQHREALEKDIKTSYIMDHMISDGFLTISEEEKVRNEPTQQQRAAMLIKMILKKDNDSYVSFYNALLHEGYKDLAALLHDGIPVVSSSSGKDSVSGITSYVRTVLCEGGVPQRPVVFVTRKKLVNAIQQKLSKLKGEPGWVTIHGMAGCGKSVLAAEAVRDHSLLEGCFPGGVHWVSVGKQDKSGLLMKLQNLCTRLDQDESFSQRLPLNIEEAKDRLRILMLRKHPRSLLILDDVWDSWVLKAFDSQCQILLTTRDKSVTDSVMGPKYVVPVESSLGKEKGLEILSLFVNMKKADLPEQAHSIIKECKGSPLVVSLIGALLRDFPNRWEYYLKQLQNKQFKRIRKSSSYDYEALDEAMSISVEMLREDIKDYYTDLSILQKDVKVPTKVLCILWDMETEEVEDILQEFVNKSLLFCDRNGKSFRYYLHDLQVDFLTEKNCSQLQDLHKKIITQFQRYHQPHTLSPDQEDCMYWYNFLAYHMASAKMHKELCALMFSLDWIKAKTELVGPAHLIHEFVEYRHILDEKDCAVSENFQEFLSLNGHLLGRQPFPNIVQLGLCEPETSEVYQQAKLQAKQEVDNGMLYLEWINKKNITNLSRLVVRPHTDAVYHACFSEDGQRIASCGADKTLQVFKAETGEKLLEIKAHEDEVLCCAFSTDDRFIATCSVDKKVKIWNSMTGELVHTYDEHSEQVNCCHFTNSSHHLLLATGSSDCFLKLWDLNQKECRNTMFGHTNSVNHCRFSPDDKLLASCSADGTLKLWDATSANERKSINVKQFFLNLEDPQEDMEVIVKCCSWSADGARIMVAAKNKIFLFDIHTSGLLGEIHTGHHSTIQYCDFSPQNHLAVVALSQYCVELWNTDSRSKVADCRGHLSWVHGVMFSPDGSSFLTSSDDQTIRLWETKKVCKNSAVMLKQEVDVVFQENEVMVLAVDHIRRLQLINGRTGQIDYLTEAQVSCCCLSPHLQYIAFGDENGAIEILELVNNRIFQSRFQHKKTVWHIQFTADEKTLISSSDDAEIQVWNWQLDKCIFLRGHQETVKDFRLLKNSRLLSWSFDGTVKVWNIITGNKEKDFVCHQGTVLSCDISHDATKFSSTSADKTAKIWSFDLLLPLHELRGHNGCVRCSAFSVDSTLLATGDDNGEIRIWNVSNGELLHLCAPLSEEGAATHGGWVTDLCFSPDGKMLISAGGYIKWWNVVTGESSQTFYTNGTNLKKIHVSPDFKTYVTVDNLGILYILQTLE
The assay is classed as functional.

For the next assay, the target named is Paired box protein Pax-8 (Homo sapiens, UniProt Q06710). The assay can be described thus: inhibitors of PAX8-driven TPO luciferase reporter, dose response, RMG-I cells, cherry-pick (AID 687027).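 Also: luciferase reporter driven by Pax8 target thyroperoxidase promoter measured by SteadyGlo luminescence.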 The assay is classed as functional, cell-based.
Chain of Paired box protein Pax-8 (Q06710 whole entry): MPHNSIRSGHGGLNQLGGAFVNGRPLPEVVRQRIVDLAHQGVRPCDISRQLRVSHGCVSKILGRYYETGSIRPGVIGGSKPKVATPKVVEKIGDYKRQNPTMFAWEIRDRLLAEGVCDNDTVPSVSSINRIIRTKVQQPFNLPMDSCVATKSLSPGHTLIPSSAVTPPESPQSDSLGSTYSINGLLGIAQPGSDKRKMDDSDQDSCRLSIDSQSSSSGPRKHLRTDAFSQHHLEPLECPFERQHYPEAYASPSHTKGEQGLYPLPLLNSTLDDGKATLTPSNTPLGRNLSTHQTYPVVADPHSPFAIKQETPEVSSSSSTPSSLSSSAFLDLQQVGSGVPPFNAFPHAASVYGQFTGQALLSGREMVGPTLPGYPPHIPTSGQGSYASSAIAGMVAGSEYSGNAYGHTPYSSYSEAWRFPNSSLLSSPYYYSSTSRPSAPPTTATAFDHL
Assay [11] in a line: non-specific cell cytotoxicity, dose response, cytotoxicity control for PAX8 inhibitor project, plate reader, dry powder samples (AID 743021). Format: functional, cell-based.

This note sets out measurements from ChEMBL document CHEMBL1201862, “PubChem BioAssay data set” (2004).

The source made the active and inactive calls.

Turning to `COc1cc(CNCc2ccc(OC)c3ccccc23)cc(OC)c1OC`, the AC50 was 23.8 µM (active) in [1], > 70 µM (inactive) in [2], 31.8 µM (active) in assay [3] and 51 µM (active) in [4].
On to `O=C(NC1CC1)C1=C[C@H](C2CCCCC2)C[C@H](OCc2ccc(CO)cc2)O1`, for which the values for the EC50 in assay [5] and in assay [6] were 4.22 µM (active) and 5.31 µM (active), respectively.
With `CCOC(=O)c1cc(-c2cc3ccccc3o2)[nH]n1`, the half-inhibitory concentration (IC50) in assay [7] is 5.55 µM (active); in [8] it was 21.6 µM (active); on Caspase-3 it was 15.4 µM (active); in assay [9] it was 34.8 µM (active).
In the case of `Clc1ccccc1OCc1nn2c(-c3ccncc3)nnc2s1`, the IC50 in [10] is 8.4 µM (active).
`COc1ccc(Oc2ccc(/C=C/C(=O)c3cccc(OC)c3)cc2[N+](=O)[O-])cc1`: the AC50 at Paired box protein Pax-8 was 14.5 µM (active); in [11], 54.3 µM (active).
`O=C(O)c1ccc(NC2=C(N3CCOCC3)C(=O)c3ccccc3C2=O)cc1`: the IC50 in assay [10] is 35.8 µM (active).
With `CC(C)CCN(C(=O)c1csnn1)C(C(=O)NC1CCCC1)c1ccc(F)cc1` (centres undefined), the AC50 in assay [1] was 4.72 µM (active); in assay [2] it was 5.56 µM (active); in assay [3], 7.51 µM (active); in assay [4], 5.93 µM (active).
In the case of `COC(=O)C1=C(C)N(Cc2ccc(C(F)(F)F)cc2)C(NCc2ccccc2)=NC1c1cccc(Cl)c1` (centres undefined), the values for the AC50 (on Paired box protein Pax-8; in [11]) were 12.3 µM (active) and 20.9 µM (active), respectively.
Regarding `CC(C)OCCCNC1=C(Cl)C(=O)c2ccccc2C1=O`, the concentration for half-maximal inhibition (IC50) in assay [7] was 19.4 µM (active); in assay [8], 8.48 µM (active); on Caspase-3, 6.38 µM (active); in [9], 25.7 µM (active).
